Data published in patent US4647562A, “Anti-spasmodic agents having three branch chains” (United Pharmaceuticals, Inc., priority 1985, dated 1987).
Where a name gives a salt, the structure may show the parent alone. Read-outs that look alike come from different tables or passages of the source.

Columns and labels:
smooth muscle = settings: prior knowledge on thiphenamil hydrochloride; cited from earlier work
[1] = system: rabbit urinary bladder strip; assay: Relaxation of bethanechol-contracted rabbit urinary bladder strip preparation; settings: for inhibition at 100 µM / inhibition at 10 µM / inhibition at 1 µM / inhibition at 0.1 µM / inhibition at 0.01 µM: Oryctolagus cuniculus
Protocol: The pharmacological actions of three anti-spasmodic compounds were studied in a rabbit urinary bladder strip preparation. In general, longitudinal strips were prepared from the base of freshly isolated rabbit bladders and were then suspended under near-physiological conditions in tissue baths. The strips were attached to force transducers and both contractile and relaxant activity was measured. To measure the relaxant effects on the anti-spasmodic compounds on previously-contracted bladder strips, the strips were initially exposed to the muscarinic receptor agonist bethanechol and allowed to reach a steady level of contractile activity for 20 minutes. At this point cumulative dose-responses to the various compounds were recorded. The rabbit abdomens were opened through a vertical midline incision. […] Tissues were allowed to equilibrate to a tension of 2 gm for sixty minutes during which time buffer was replaced at 20 minute intervals. […] Bethanechol was employed as the representative cholinergic agonist and, following equilibration, was added to the baths for a final concentration of 250 μM. The tissues were allowed 20 minutes to achieve a maintained level of contraction in response to bethanechol and, at this point, cumulative dose-response measurements for three anti-spasmodic compounds were started at concentrations ranging from 10^-8 M to 10^-4 M. Solutions were added in volumes up to 100 μl and were prepared fresh each day by dissolving them in distilled:deionzed water. […]

muscarinic receptors = type: binding, rabbit (New Zealand White); settings: 1.0 × 10^-5 M compound; 0.1 nM [^3 H]QNB; 37° C., 60 minutes; pH 7.4
[2] = 10^-4 moles/liter, bethanechol 250 μM
[3] = 10^-5 moles/liter, bethanechol 250 μM
[4] = 10^-6 moles/liter, bethanechol 250 μM
[5] = 10^-7 moles/liter, bethanechol 250 μM
[6] = 10^-8 moles/liter, bethanechol 250 μM
[7] = pH 7.4, read-out: % of maximum relaxation
[8] = read-out: % background relaxation

CCN(CC)CCSC(=O)C(c1ccccc1)c1ccccc1 [Thiphenamil hydrochloride]
atropinic side effects (smooth muscle): without producing characteristic atropinic side effects on salivary and sweat glands, GI glands, the eye or the cardiovascular system | decrease spasm (smooth muscle): decrease spasm of the gastrointestinal tract, biliary tract, ureter and uterus

CCN(CC)CCSC(=O)CC(C)(C)C [t-butyl-acetyl-thio-S-(2-diethylaminoethyl)-ester.HCl]
Decrease in force of contraction of rabbit bladder strip [1, 2]: 1.08 gm | Increase in length of rabbit bladder strip [1, 2]: 3.9 cm | Decrease in force of contraction of rabbit bladder strip [1, 3]: 0.22 gm | Increase in length of rabbit bladder strip [1, 3]: 0.6 cm | Decrease in force of contraction of rabbit bladder strip [1, 4]: 0.03 gm | Increase in length of rabbit bladder strip [1, 4]: 0.1 cm | Decrease in force of contraction of rabbit bladder strip [1, 5]: 0.00 gm | Increase in length of rabbit bladder strip [1, 5]: 0.0 cm | Decrease in force of contraction of rabbit bladder strip [1, 6]: 0.03 gm | Increase in length of rabbit bladder strip [1, 6]: 0.1 cm | inhibition at 100 µM ([1]; pH 7.4, 10^-4 moles/liter, bethanechol 250 μM, maximal = pre-bethanechol baseline, read-out: % of maximum relaxation): 98% | inhibition at 10 µM ([1]; pH 7.4, 10^-5 moles/liter, bethanechol 250 μM, maximal = pre-bethanechol baseline, read-out: % of maximum relaxation): 15% | inhibition at 1 µM ([1]; pH 7.4, 10^-6 moles/liter, bethanechol 250 μM, maximal = pre-bethanechol baseline, read-out: % of maximum relaxation): 2.5% | inhibition at 0.1 µM ([1]; pH 7.4, 10^-7 moles/liter, bethanechol 250 μM, maximal = pre-bethanechol baseline, read-out: % of maximum relaxation): 0% | inhibition at 0.01 µM ([1]; pH 7.4, 10^-8 moles/liter, bethanechol 250 μM, maximal = pre-bethanechol baseline, read-out: % of maximum relaxation): 2.5% | inhibition at 100 µM ([1]; 10^-4 moles/liter, bethanechol 250 μM, read-out: % background relaxation): 80% | inhibition at 10 µM ([1]; 10^-5 moles/liter, bethanechol 250 μM, read-out: % background relaxation): 1.3% | inhibition at 1 µM ([1]; 10^-6 moles/liter, bethanechol 250 μM, read-out: % background relaxation): 0% | inhibition at 0.1 µM ([1]; 10^-7 moles/liter, bethanechol 250 μM, read-out: % background relaxation): 0% | inhibition at 0.01 µM ([1]; 10^-8 moles/liter, bethanechol 250 μM, read-out: % background relaxation): 0% | % inhibition of ^3 H[QNB] binding (muscarinic receptors): 76%

CCN(CC)CCSC(=O)C(C)(C)C [trimethylacetyl-thio-S-(2-diethylaminoethyl)-ester.HCl]
Decrease in force of contraction of rabbit bladder strip [1, 2]: 0.82 gm | Increase in length of rabbit bladder strip [1, 2]: 4.1 cm | Decrease in force of contraction of rabbit bladder strip [1, 3]: 0.40 gm | Increase in length of rabbit bladder strip [1, 3]: 2.0 cm | Decrease in force of contraction of rabbit bladder strip [1, 4]: 0.38 gm | Increase in length of rabbit bladder strip [1, 4]: 1.9 cm | Decrease in force of contraction of rabbit bladder strip [1, 5]: 0.38 gm | Increase in length of rabbit bladder strip [1, 5]: 1.9 cm | Decrease in force of contraction of rabbit bladder strip [1, 6]: 0.00 gm | Increase in length of rabbit bladder strip [1, 6]: 0.0 cm | inhibition at 0.01 µM [1, 7]: 0% | inhibition at 0.1 µM [1, 7]: 16.5% | inhibition at 1 µM [1, 7]: 16.5% | inhibition at 10 µM [1, 7]: 16.5% | inhibition at 100 µM [1, 7]: 35.7% | inhibition at 0.01 µM [1, 8]: 0% | inhibition at 0.1 µM [1, 8]: 14.1% | inhibition at 1 µM [1, 8]: 14.1% | inhibition at 10 µM [1, 8]: 14.1% | inhibition at 100 µM [1, 8]: 29.7% | % inhibition of ^3 H[QNB] binding (muscarinic receptors): 66%
